The target of the test is human GLP1R (hGLP1R) (Homo sapiens, UniProt P43220). The test is described as follows: Human GLP1R β-arrestin recruitment assay (PathHunter). It counts as cell-based. On the set-up: insert synthesized by GeneArt 93-0164 (CHO-K1-EA parental cells); 93-0491 (pCMV PK vector bundle). Conditions: CHO-hGLP1R-β-arrestin cells; for EC50: 2 h at 37° C., top concentration 30 μM, read-out: Beta-Arrestin assay EC50 Mean; for Emax: relative to GLP1(7-36), read-out: Beta-Arrestin assay Emax (%). Here is the method: Compounds of formula (I) according to the invention were tested in the following cellular assays that measure the intracellular cAMP concentration, beta-arrestin recruitment and receptor internalization. The cAMP is generated by the activation of GLP1R. The extent to which the GLP1R is internalized into the cell and away from the plasma membrane following activation is also shown in Table 2. EC50 for each assay is defined as the concentration of the compound that leads to half of the maximum response (after baseline correction). Emax is defined as the maximum response observed for the test compound, normalized to the maximum response observed for the endogenous ligand (GLP1(7-36)) to GLP1R.
Chain of human GLP1R (hGLP1R) (P43220 24-463): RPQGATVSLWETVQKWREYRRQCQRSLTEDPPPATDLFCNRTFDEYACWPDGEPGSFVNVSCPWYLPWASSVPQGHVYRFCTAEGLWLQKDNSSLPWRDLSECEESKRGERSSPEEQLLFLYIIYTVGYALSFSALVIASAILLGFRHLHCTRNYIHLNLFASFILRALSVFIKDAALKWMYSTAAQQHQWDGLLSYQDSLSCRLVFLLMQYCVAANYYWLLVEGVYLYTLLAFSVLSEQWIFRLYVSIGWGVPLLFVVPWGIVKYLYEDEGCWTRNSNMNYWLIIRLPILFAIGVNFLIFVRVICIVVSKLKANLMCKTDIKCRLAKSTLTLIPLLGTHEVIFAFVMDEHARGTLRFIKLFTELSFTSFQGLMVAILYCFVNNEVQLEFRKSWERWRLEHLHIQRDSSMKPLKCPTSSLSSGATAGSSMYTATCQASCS
Human GLP1R β-Arrestin Recruitment Assay
The extent to which agonists recruited β-arrestin was measured using the PathHunter® β-arrestin assay (DiscoverX). This assay measures binding of β-arrestin to the receptor using an enzyme complementation approach. […] When β-arrestin is recruited to the receptor the enzyme becomes active and generates luminescence in the presence of a chemiluminescent substrate (PathHunter® Detection Kit, DiscoverX cat #93-0001). Luminescence can be measured on a relevant detector. CHO-hGLP1R-β-arrestin cells stably overexpressing hGLP1R with Prolink tag and β-arrestin with EA tag were seeded at 20 μL per well in white 384-well poly-D-Lysine coated plates (Greiner Bio One, cat #781945) in Plating Reagent 2 (DiscoverX, cat #93-0563R^2A), and incubated overnight at 37° C., 5% CO2 with humidity. The following day, agonists were prepared at 5 times the final required concentration. To generate triplicate dose response curves, compounds were serially diluted 3-fold in assay buffer (HBSS, 10 mM Hepes and 0.1% BSA), then added to the cell assay plate to a final volume of 25 μL and final top concentrations starting at 30 μM. In the same plate and assay buffer as the tested compounds, were EC100 control wells containing GLP1 (7-36) peptide (Bachem, cat #H-6795) at a final concentration of 1 μM and also EC0 control wells containing no compound. The plate was incubated at 37° C., 5% CO2 with humidity for 2 h after adding the compounds to the cells. Then the detection reagent was prepared (19 parts cell assay buffer, 5 parts substrate reagent 1 and 1 part substrate reagent 2 as per manufacturers recommendations, DiscoverX cat #93-0001), and 12 μL were added per well to the cell assay plate. The plate was incubated for an additional hour in the dark at RT. Luminescence was then measured with an Envision 2104 Multilabel reader with “TRF Light Unit, 337 nm” (Perkin Elmer) using the Ultra-Sensitive protocol setting “384-well US luminescence detector” with the 384-well luminescence aperture, 0.1 sec per well. β-arrestin recruitment was calculated and expressed as percent of the GLP1 (7-36) EC100 control wells: [(sample signal−mean EC0 signal)/(mean EC100 of GLP1 (7-36) signal−mean EC0 signal)]*100 using Microsoft Excel. Curve fitting for EC50 determinations was performed using GraphPad Prism. The 4-parameter logistic model, Hill slope was used: Y=Bottom+(Top−Bottom)/(1+10^((Log EC50−X)*Hill Slope)), where Y is the functional response; X is the compound concentration; bottom is A0 or the minimum value (at 0 dose); top is Ainf or the maximum value (at infinite dose); EC50 is the point of inflection (i.e. the point on the sigmoid shaped curve halfway between A0 and Ainf). The EC50 value was calculated in μM. Emax is the maximal activity detected within the concentration range, derived from the fitted curve relative to GLP1(7-36).
PathHunter CHO-K1-EA parental cells (DiscoverX, cat #93-0164) were plated at a density of 2×10^6 cells per T75 cm^2 flask in 22 mL of complete medium (AssayComplete Cell Culture kit 107, DiscoverX, cat #92-3107G). The following day, the medium was replaced with 22 mL of fresh medium with no antibiotics and cells were transfected as follows. […]

Take `Cc1nc(CN2CCC(c3cccc4c3O[C@@](C)(c3ccc(Cl)cc3F)O4)CC2)n(C[C@@H]2CCO2)c1-c1nc(C(=O)O)c(C)o1` [Compound C-1, 2-(2-((4-((S)-2-(4-chloro-2-fluorophenyl)-2-methylbenzo[d][1,3]dioxol-4-yl)piperidin-1-yl)methyl)-4-methyl-1-(((S)-oxetan-2-yl)methyl)-1H-imidazol-5-yl)-5-methyloxazole-4-carboxylic acid]: the EC50 was over 30 µM and the maximal effect (Emax) worked out at 2%.

As to `C[C@]1(c2ccc(Cl)cc2F)Oc2cccc(C3CCN(Cc4nc(C(F)(F)F)c(-c5nc(C(=O)O)co5)n4C[C@@H]4CCO4)CC3)c2O1` [Compound C-4, 2-(2-((4-((S)-2-(4-chloro-2-fluorophenyl)-2-methylbenzo[d][1,3]dioxol-4-yl)piperidin-1-yl)methyl)-1-(((S)-oxetan-2-yl)methyl)-4-(trifluoromethyl)-1H-imidazol-5-yl)oxazole-4-carboxylic acid], the half-maximal effective concentration (EC50) is over 30 µM and the Emax came out at 0%.

As to `CCc1nc(CN2CCC(c3cccc4c3O[C@@](C)(c3ccc(Cl)cc3F)O4)CC2)n(C[C@@H]2CCO2)c1-c1nc(C(=O)O)co1` [Compound C-5, 2-(2-((4-((S)-2-(4-chloro-2-fluorophenyl)-2-methylbenzo[d][1,3]dioxol-4-yl)piperidin-1-yl)methyl)-4-ethyl-1-(((S)-oxetan-2-yl)methyl)-1H-imidazol-5-yl)oxazole-4-carboxylic acid], the EC50 was over 30 µM and the Emax was 0%.

As for `CCc1nc(CN2CCC(c3cccc4c3O[C@@](C)(c3ccc(Cl)cc3F)O4)CC2)n(C[C@H]2CCO2)c1-c1nc(C(=O)O)co1` [Compound C-7, 2-(2-((4-((S)-2-(4-chloro-2-fluorophenyl)-2-methylbenzo[d][1,3]dioxol-4-yl)piperidin-1-yl)methyl)-4-ethyl-1-(((R)-oxetan-2-yl)methyl)-1H-imidazol-5-yl)oxazole-4-carboxylic acid], the EC50 is over 30 µM and the Emax came to 5%.

Consider `Cc1nc(CN2CCC(c3cccc4c3O[C@@](C)(c3ccc(Cl)cc3F)O4)CC2)n(C[C@@H]2CCO2)c1-c1nc(C(=O)O)co1` [Compound C-9, 2-(2-((4-((S)-2-(4-chloro-2-fluorophenyl)-2-methylbenzo[d][1,3]dioxol-4-yl)piperidin-1-yl)methyl)-4-methyl-1-(((S)-oxetan-2-yl)methyl)-1H-imidazol-5-yl)oxazole-4-carboxylic acid], for which the EC50 is over 30 µM and the Emax is 0%.

`CCc1oc(-c2c(C)nc(CN3CCC(c4cccc5c4O[C@@](C)(c4ccc(Cl)cc4F)O5)CC3)n2C[C@@H]2CCO2)nc1C(=O)O` [Compound C-10, 2-(2-((4-((S)-2-(4-chloro-2-fluorophenyl)-2-methylbenzo[d][1,3]dioxol-4-yl)piperidin-1-yl)methyl)-4-methyl-1-(((S)-oxetan-2-yl)methyl)-1H-imidazol-5-yl)-5-ethyloxazole-4-carboxylic acid]: the EC50 was over 30 µM and the Emax turned out to be 0%.

For `Cc1oc(-c2nc(CN3CCC(c4cccc5c4O[C@@](C)(c4ccc(Cl)cc4F)O5)CC3)n(C[C@@H]3CCO3)c2C)nc1C(=O)O` [Compound C-12, 2-(2-((4-((S)-2-(4-chloro-2-fluorophenyl)-2-methylbenzo[d][1,3]dioxol-4-yl)piperidin-1-yl)methyl)-5-methyl-1-(((S)-oxetan-2-yl)methyl)-1H-imidazol-4-yl)-5-methyloxazole-4-carboxylic acid], the EC50 was over 30 µM and the maximum response (Emax) was found to be 10%.

Take `Cc1c(-c2nc(C(=O)O)co2)nc(CN2CCC(c3cccc4c3O[C@@](C)(c3ccc(Cl)cc3F)O4)CC2)n1C[C@@H]1CCO1` [Compound C-13, 2-(2-((4-((S)-2-(4-chloro-2-fluorophenyl)-2-methylbenzo[d][1,3]dioxol-4-yl)piperidin-1-yl)methyl)-5-methyl-1-(((S)-oxetan-2-yl)methyl)-1H-imidazol-4-yl)oxazole-4-carboxylic acid]: the EC50 is over 30 µM and the Emax turned out to be 12%.
